Data published in US20160339099A1, “SYNERGISTIC COMBINATION OF ANALGESIC DRUGS” (priority 2013, published 2016).

How the values were obtained:
[1] = tested on: Nav1.7 null mutant mice; assay: Hargreaves test after naloxone in Nav1.7 null mutant mice; assay type: in vivo; conditions: 2 mg/kg naloxone intraperitoneal; Nav1.7 Advill tissue-specific null mutant mice
Description: The analgesia found in Nav1.7 null mutant mice was measured with the Hargreaves apparatus, which is a measure of acute thermal pain (Minett et al. 2011, Minett et al. 2012).
(§1) Thermal nociceptive thresholds were measured using the paw-withdrawal latency according to the method described by Hargreaves et al. (1988), with minor modifications (Minett et al. 2011). Briefly, mice were left to acclimatise within an IITC Hargreaves stand for at least 1 hour. Three withdrawal responses were measured per animal. The mice were then left to resettle for at least 30 minutes before the drug treatment.
(§2) Mice received intraperitoneal injections of either 2 mg/kg naloxone or the equivalent volume of vehicle.

[2] = tested on: healthy human controls; assay: Radiant heat stimuli under naloxone in healthy controls; assay type: in vivo; conditions: healthy patients
Description: (§3) We evaluated the probability of detecting 9-ms radiant heat pulses in a Nav1.7 null mutant human patient and in three age-matched, healthy human controls. Radiant heat was used to selectively stimulate intra-epidermal free-nerve endings, without touch. The results are depicted in FIG. 11A.
(§4) Tonic radiant heat was administered over 25 seconds, while the participants rated online the intensity of the heat on a visual analogue scale. The results are depicted in FIG. 11B.

[3] = tested on: Nav1.7 null mutant human; assay: Human processing of tonic radiant heat under naloxone (ratings, EEG); assay type: in vivo
Description: (§5) A Nav1.7 loss of function pain-free […] ([…]) was tested under baseline, saline, and naloxone (6 mg) bolus and 0.1 mg/minute infusion treatment. The forearm was stimulated with radiant heat (CO2 lasers).
We delivered tonic stimuli, at the constant temperature of 42, 45, and 48° C. for 20 sec. ML rated online fluctuations in perceived intensity on a visual analog scale. Identical stimuli were rated higher after administration of naloxone in comparison to both the baseline and saline conditions.
Furthermore, we measured the electroencephalogram (EEG) responses induced by tonic radiant heat stimulation: in other words, we looked at the effect of the nociceptive stimulation on brain rhythms.
as §4

[4] = tested on: Nav1.7 loss of function pain-free; assay: Tactile sensitivity under naloxone; assay type: in vivo, human; conditions: baseline, saline and naloxone conditions
[5] = tested on: Nav1.7 null mutant human; assay: Human processing of phasic radiant heat (laser pulses) under naloxone; assay type: in vivo
Description: as §5
Laser pulses of the same energy (fluency 0.6 j/mm^2) were given to the forearm. The energy used typically evokes a sensation of sharp pinprick pain in healthy volunteers. […] However, naloxone enhanced the detection rate of laser pulses to 80%. ML felt 37.5% of the detected stimuli as pinprick, while the other sensations were described as a slow heat, or warmth. Ratings were low (mean 6.1, range 0.5-15) in a perceived intensity scale ranging from 0-100.
as §3

[6] = tested on: normal mice; assay: Hargreaves test after naloxone in normal mice; assay type: in vivo; conditions: 2 mg/kg naloxone intraperitoneal
Description: as §1, §2

[7] = tested on: Nav1.7 loss of function pain-free; assay: Human radiant heat detection thresholds (warmth, pinprick) under naloxone; assay type: in vivo; conditions: naloxone 6 mg bolus and 0.1 mg/minute infusion
Description: as §5
Warmth threshold reflects activation of unmyelinated C-fibres, while pinprick threshold is mediated by small-myelinated A-delta fibres (LaMotte et al 1978). Detection thresholds were assessed by slowly increasing the temperature of the stimulus (rate 1 deg/sec), after a neutral baseline of variable length (5-10 seconds). The participant was asked to press a button, to stop the stimulus as soon it was detected as warm or pinprick. At baseline, ML perceived only 1 of the 6 stimulus ramps. All the stimuli were detected in the subsequent saline and naloxone sessions.

[8] = biological target: T1, Nav1.7 (Homo sapiens, UniProt Q15858); assay: Whole cell voltage clamp of Nav1.7 activity in transfected HEK293 cell line; assay type: cell-based; set-up: expressed in transfected cells; host or cells: HEK293; conditions: 0.25 μM, HEK293 cell line transfected with human Nav1.7
T1 sequence (Q15858 whole entry): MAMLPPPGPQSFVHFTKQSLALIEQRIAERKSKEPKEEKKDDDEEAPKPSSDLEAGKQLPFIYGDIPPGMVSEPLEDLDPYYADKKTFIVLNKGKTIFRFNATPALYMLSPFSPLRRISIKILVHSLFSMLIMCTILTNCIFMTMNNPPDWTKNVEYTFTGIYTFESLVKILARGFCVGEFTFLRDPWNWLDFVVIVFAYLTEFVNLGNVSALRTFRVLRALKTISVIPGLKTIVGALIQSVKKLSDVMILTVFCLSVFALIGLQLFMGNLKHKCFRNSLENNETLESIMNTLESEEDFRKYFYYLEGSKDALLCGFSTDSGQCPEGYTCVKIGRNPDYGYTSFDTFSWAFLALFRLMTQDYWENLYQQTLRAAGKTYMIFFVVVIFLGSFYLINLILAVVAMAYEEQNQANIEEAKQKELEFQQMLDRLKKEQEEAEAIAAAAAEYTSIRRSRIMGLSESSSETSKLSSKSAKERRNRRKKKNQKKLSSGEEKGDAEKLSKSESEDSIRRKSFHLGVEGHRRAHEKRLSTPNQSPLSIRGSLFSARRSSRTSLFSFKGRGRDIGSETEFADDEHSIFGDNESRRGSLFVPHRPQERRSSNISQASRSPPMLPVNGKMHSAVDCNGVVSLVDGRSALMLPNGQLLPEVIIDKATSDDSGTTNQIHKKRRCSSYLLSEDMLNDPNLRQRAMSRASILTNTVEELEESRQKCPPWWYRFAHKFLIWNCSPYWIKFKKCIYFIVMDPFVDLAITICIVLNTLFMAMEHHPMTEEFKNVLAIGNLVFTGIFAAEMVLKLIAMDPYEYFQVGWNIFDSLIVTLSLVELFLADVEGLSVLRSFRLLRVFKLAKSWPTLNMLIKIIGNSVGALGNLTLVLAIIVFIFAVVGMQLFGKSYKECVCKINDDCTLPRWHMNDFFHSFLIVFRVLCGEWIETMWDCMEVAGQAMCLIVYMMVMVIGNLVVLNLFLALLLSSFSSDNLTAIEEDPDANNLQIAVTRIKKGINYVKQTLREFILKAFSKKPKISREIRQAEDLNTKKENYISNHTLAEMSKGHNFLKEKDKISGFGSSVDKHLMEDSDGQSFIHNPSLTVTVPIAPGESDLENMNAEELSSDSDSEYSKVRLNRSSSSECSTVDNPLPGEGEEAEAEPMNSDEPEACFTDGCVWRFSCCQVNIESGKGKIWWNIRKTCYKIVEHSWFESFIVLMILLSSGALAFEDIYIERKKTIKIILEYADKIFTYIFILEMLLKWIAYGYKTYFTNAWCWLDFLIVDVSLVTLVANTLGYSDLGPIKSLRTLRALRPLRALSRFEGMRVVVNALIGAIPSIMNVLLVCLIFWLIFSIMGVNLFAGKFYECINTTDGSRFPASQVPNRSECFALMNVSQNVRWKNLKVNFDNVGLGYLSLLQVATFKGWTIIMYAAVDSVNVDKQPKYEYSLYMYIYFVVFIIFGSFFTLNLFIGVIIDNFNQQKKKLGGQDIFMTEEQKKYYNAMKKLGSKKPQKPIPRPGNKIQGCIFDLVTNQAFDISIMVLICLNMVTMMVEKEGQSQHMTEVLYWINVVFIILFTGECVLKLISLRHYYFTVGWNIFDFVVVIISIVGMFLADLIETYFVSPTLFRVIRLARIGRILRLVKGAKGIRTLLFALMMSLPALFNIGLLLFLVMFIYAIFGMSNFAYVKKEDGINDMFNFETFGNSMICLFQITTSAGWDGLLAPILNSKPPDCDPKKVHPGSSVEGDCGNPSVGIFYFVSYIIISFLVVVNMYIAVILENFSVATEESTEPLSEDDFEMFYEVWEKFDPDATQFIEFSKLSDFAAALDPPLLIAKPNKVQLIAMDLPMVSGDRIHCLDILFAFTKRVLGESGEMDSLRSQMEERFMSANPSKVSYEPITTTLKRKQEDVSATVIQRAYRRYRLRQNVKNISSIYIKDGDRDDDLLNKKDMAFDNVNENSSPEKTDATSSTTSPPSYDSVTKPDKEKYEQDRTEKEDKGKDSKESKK
Description: Specifically, HEK293 (ATCC) cells are transfected with Nav1.7 or other sodium channel cDNA constructs in a vector co-expressing a fluorescent marker protein using lipofectamine 2000 or other transfection method and plated onto poly-d-lysine coated coverslips. All recordings are done 24-72 hours after transfection
Whole-cell voltage clamp recordings are performed using an Axopatch 200 B amplifier at room temperature using standard techniques. Extracellular solution comprised (mM) NaCl 145, KCl 4, CaCl2 1.8, MgCl2 1, HEPES 10, (pH 7.35 with NaOH); intracellular (mM) CsCl 150, EGTA 10, HEPES 10, (pH 7.35 with CsOH). […] Tau of inactivation was measured by fitting a standard exponential function to the decaying current and persistent current was determined by measuring the current 20 ms after the start of the voltage step and expressing it as a percentage of the transient current in the same step. To assess voltage dependence of activation current-voltage families were obtained and peak sodium currents measured at each voltage. Channel conductance was calculated using the formula GNa=I/(V−Vrev) where GNa is sodium conductance, I is peak current, V is the voltage step and Vrev is the measured reversal potential which was determined for each cell by fitting a straight line through the linear portion of the current-voltage relationship. […]

[9] = biological target: T1, Nav1.7; conditions: Escoubas et al. 2006, Bosmans et al. 2005; cited from earlier work
[10] = tested on: inflammatory hyperalgesia in a murine thermal pain model; assay: Complete Freund's Adjuvant thermal hyperalgesia, Hargreaves test (Example 2); assay type: in vivo, mice; conditions: intraplantar 1 microgram each; three days post CFA
Description: Baseline thermal thresholds were recorded for each animal before 20 μl Complete Freund's Adjuvant (Sigma) was injected subcutaneously into the plantar aspect of a hind paw using a Hamilton syringe and 30 G needle. Three days post Complete Freund's Adjuvant injections thermal threshold were measured before to drug treatment.
(§6) Mice received 20 μl intraplantar injections of either; • 1 μg Phlotoxin-1, • 1 μg Buprenorphine, • combined 1 μg Phlotoxin-1 and 1 μg Buprenorphine • or vehicle.

[11] = tested on: murine acute thermal pain model; assay: Hargreaves test, murine acute thermal pain model, intraplantar drug treatment; conditions: 1 μg of each drug, 20 μl intraplantar injection, compared with control mice
Description: as §6

[12] = biological target: T1, Nav1.7; conditions: Yang et al. 2013; read-out: IC50 for inhibition of Nav1.7; cited from earlier work
[13] = scale ranging from 0-100, naloxone

With `C=CCN1CC[C@]23c4c5ccc(O)c4O[C@H]2C(=O)CC[C@@]3(O)[C@H]1C5` [naloxone] the “effect on the analgesia of Nav1.7 null mutant mice, Hargreaves test” value [1] was “partially reverses”, the “sensitisation to noxious stimuli (phasic and tonic radiant heat)” value [2] was “no effect” and the “perceived intensity rating of tonic stimuli (visual analog scale) versus baseline and saline” value ([3]; 42, 45 and 48° C. for 20 sec, naloxone) was “rated higher”. For the same molecule, the “EEG alpha and beta power during tonic radiant heat” value ([3]; naloxone) was “reduced”, the “EEG low and high gamma induced oscillations relative to baseline and saline” value ([3]; naloxone) was “enhancement” and the “intensity ratings of tonic radiant heat on visual analogue scale (Example 14)” value ([3]; tonic radiant heat over 25 seconds, Nav1.7 null human) was “strongly increased”. The tactile sensitivity [4] was “remained unchanged”, the “probability of detecting 9-ms radiant heat pulses” value ([5]; bolus of 6 mg naloxone followed by infusion at 0.1 mg/minute, Nav1.7 null mutant) was 80% and the “detection rate of laser pulses” value ([5]; fluency 0.6 j/mm2, forearm, naloxone, none perceived at baseline and saline) was 80%. The “detected stimuli felt as pinprick” value ([5]; naloxone) was 37.5%, the “perceived intensity rating of laser pulses, mean” value [5, 13] was 6.1 and the “perceived intensity rating of laser pulses, range” value [5, 13] was 0.5-15. The “effect on pain thresholds, Hargreaves test” value [6] was “does not alter pain thresholds”, the “trials in which pinprick stimuli were reported "surprisingly uncomfortable"” value [7] was 66% and the “reduction of pinprick detection thresholds relative to saline” value ([7]; forearm radiant heat) was 1.7 °C. The “reduction of warmth detection thresholds relative to saline” value ([7]; forearm radiant heat) was 7 °C.
In the case of Phlotoxin-1, the “inhibition of functional Nav1.7 voltage-gated channel activity” value [8] is given as “completely inhibits”, the “selective affinity for Nav1.7 compared to other expressed sodium channels” value [9] is given as “sub-micromolar” and the “effect on inflammatory (CFA) thermal hyperalgesia, Hargreaves test” value [10] is given as “much lesser effects”. The “analgesia in the Hargreaves test (paw-withdrawal latency)” value [11] was “no analgesia”.
In the case of μ-SLPTX-Ssm6a, the IC50 [12] is listed as about 25 nM.
